According to patent US20080248134A1, “Oral compositions, use and combinations of N-[2-(dimethylamino)ethyl]-2,6 dimethyl-1-oxo-1,2-dihydrobenzo[b]-1,6-naphthyridine-4-carboxamide and closely related analogues thereof” (Auckland Uniservices Limited, priority 2005, published 2008):
Like-named read-outs stand apart in the source and are kept apart here.

Legend:
[1] = test system: HCT116 human colon carcinoma line, TP53 mutant; assay: In vitro cell survival, clonogenic assay; assay type: cell-based; details: p53 mutant HCT116, 6 hours exposure
Experimental: (§1) Two HCT116 human colon carcinoma lines, one with TP53 wild type status and one with TP53 mutant status, were exposed to the compound of Formula II for 6 hours. The cells were washed free of drug and surviving cells were measured by clonogenic assay. The concentration for maximal reduction of cell survival was 1% for p53 wild-type cells and 5% for p53 mutant cells. The cytotoxicity of the compound of the present invention was also tested in three Jurkat leukaemia lines, two of which, JLA and JLD, are resistant to topoisomerase inhibitors because of low cellular levels of topoisomerase II.

[2] = test system: HCT116 human colon carcinoma line, TP53 wild type; assay: In vitro cell survival, clonogenic assay; assay type: cell-based; details: p53 wild-type HCT116, 6 hours exposure
Experimental: as §1

[3] = test system: survivin in HCT116 (TP53 wild type); assay: Inhibition of survivin production, western blotting; assay type: cell-based, human; details: various concentrations, 24 hours
Experimental: Survivin is a protein that is expressed selectively in many types of cancer cells and which is known to be associated with resistance to apoptosis (Zaffaroni N and Daidone M G. Survivin expression and resistance to anticancer treatments: perspectives for new therapeutic interventions. Drug Resistance Updates: Reviews and Commentaries in Antimicrobial and Anticancer Chemotherapy. 2002 5(2):65-72). […] Extracts were prepared, proteins were separated by electrophoresis and survivin expression was determined by western blotting.

Plasma pharmacokinetics = assay type: in vivo, mice; details: for AUC: read-out: area under the plasma concentration-time profile for the first 8 hours (AUC)
Experimental: The plasma pharmacokinetics of the compound of Formula II, were compared following intravenous, intraperitoneal and oral administration at a dose of 8.9 mg/kg (26 μmol/kg). Mice were terminally anaesthetised at various times up to 8 hours after drug administration and blood was taken for preparation of plasma samples. Plasma concentrations of the compound of Formula II were measured by high performance liquid chromatography-mass spectrophometry. The results are shown in FIG. 6, the vertical bars showing the standard deviation of the mean values from three mice per time point.
As expected from the rate of gastric emptying, the initial increase in plasma and liver drug concentrations occur later after oral administration than they do after intravenous or intraperitoneal administration, but the plasma and tissue half-lives are similar.

[4] = intraperitoneal administration, 8.9 mg/kg, mice
[5] = intravenous administration, 8.9 mg/kg, mice

SMILES: Cc1cccc2cc3c(=O)n(C)cc(C(=O)NCCN(C)C)c3nc12 [Formula II, N-[2-(dimethylamino)ethyl]-2,6 dimethyl-1-oxo-1,2-dihydrobenzo[b]-1,6-naphthyridine-4-carboxamide]
- maximal reduction of cell survival [1]: 5%
- maximal reduction of cell survival [2]: 1%
- survivin expression [3]: suppress survivin production
- time-concentration profiles (plasma and liver) for the different routes of administration (Plasma pharmacokinetics; i.p., i.v. and p.o., non tumour bearing mice): quite comparable
- maximum plasma concentration (Plasma pharmacokinetics; [4]): 0.57 µM
- time at which maximum plasma concentration achieved (Plasma pharmacokinetics; [4]): 0.5 h
- maximum plasma concentration (Plasma pharmacokinetics; [5]): 1.24 µM
- time at which maximum plasma concentration achieved (Plasma pharmacokinetics; [5]): 0.08 h
- AUC (Plasma pharmacokinetics; mouse, plasma, ip, intraperitoneal administration, 8.9 mg/kg, mice): 1630 nM·h
- bioavailability (Plasma pharmacokinetics; mouse, plasma, oral, relative to intraperitoneal administration, 8.9 mg/kg, mice, read-out: bioavailability following oral administration): 63%
- half-life (Plasma pharmacokinetics; mouse, plasma, all three routes of administration (i.v., i.p., oral), 8.9 mg/kg, mice, read-out: terminal plasma half life (converted)): ~3.5 h
- AUC (Plasma pharmacokinetics; mouse, plasma, intravenous administration, 8.9 mg/kg, mice): 1990 nM·h
- AUC (Plasma pharmacokinetics; mouse, plasma, oral administration, 8.9 mg/kg, mice): 1030 nM·h
- maximum plasma concentration (Plasma pharmacokinetics; oral administration, 8.9 mg/kg (26 μmol/kg), mice): 0.27 µM
- time at which maximum plasma concentration achieved (Plasma pharmacokinetics; oral administration, 8.9 mg/kg, mice): 2 h
